# Experimental data taken from ChEMBL document CHEMBL1201862, “PubChem BioAssay data set” (2004).
#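 Method: 48-hour compound exposure of cells in 96-well plates, five concentrations, linear interpolation of endpoints. GI50: concentration for 50% inhibition of growth.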 Activity calls are given as the source filed them. Cut-off read from the data, not from the text of the source: active = GI50 up to about 1.1 µM and inactive = higher.
# Tests used:
# Experiment in all cases: inhibition of tumour cell growth, NCI panel, 48 h
# 786-0 = system: 786-0
# A498 = system: A498
# A549 = system: A549
# ACHN = system: ACHN
# BT-549 = system: BT-549
# CAKI-1 = system: CAKI-1
# CCRF-CEM = system: CCRF-CEM
# DU-145 = system: DU-145
# HCC 2998 = system: HCC 2998
# HCT-116 = system: HCT-116
# HCT-15 = system: HCT-15
# HL-60 = system: HL-60
# HOP-62 = system: HOP-62
# HT-29 = system: HT-29
# IGROV-1 = system: IGROV-1
# K562 = system: K562
# LOX IMVI = system: LOX IMVI
# M14 = system: M14
# MCF7 = system: MCF7
# MDA-MB-231 = system: MDA-MB-231
# MDA-MB-435 = system: MDA-MB-435
# MDA-N = system: MDA-N
# MOLT-4 = system: MOLT-4
# Malme-3M = system: Malme-3M
# NCI-H226 = system: NCI-H226
# NCI-H23 = system: NCI-H23
# NCI-H460 = system: NCI-H460
# NCI-H522 = system: NCI-H522
# OVCAR-3 = system: OVCAR-3
# OVCAR-4 = system: OVCAR-4
# OVCAR-5 = system: OVCAR-5
# OVCAR-8 = system: OVCAR-8
# PC-3 = system: PC-3
# RPMI-8226 = system: RPMI-8226
# SF-268 = system: SF-268
# SK-MEL-28 = system: SK-MEL-28
# SK-MEL-2 = system: SK-MEL-2
# SK-MEL-5 = system: SK-MEL-5
# SN12C = system: SN12C
# SNB-19 = system: SNB-19
# SNB-75 = system: SNB-75
# SR = system: SR
# SW-620 = system: SW-620
# T47D = system: T47D
# TK-10 = system: TK-10
# U-251 = system: U-251
# UACC-257 = system: UACC-257
# UACC-62 = system: UACC-62
# UO-31 = system: UO-31
smiles,measurement,setting,value
COc1ccc(C2c3c[nH]nc3CC3CCCCC32)cc1 (centres undefined),GI50,786-0,18.6 µM (inactive)
same,GI50,A498,11 µM (inactive)
same,GI50,A549,14.5 µM (inactive)
same,GI50,ACHN,19 µM (inactive)
same,GI50,BT-549,16.6 µM (inactive)
same,GI50,CAKI-1,14.2 µM (inactive)
same,GI50,CCRF-CEM,21.9 µM (inactive)
same,GI50,DU-145,13.4 µM (inactive)
same,GI50,HCC 2998,20.3 µM (inactive)
same,GI50,HCT-116,17.8 µM (inactive)
same,GI50,HCT-15,15.7 µM
same,GI50,HL-60,23.4 µM (inactive)
same,GI50,HOP-62,21.3 µM (inactive)
same,GI50,HT-29,23.4 µM (inactive)
same,GI50,IGROV-1,12.7 µM (inactive)
same,GI50,K562,22.2 µM (inactive)
same,GI50,LOX IMVI,17.9 µM (inactive)
same,GI50,M14,17.6 µM (inactive)
same,GI50,MCF7,15.2 µM (inactive)
same,GI50,MDA-MB-231,14 µM (inactive)
same,GI50,MDA-MB-435,19.4 µM (inactive)
same,GI50,MDA-N,14.4 µM (inactive)
same,GI50,MOLT-4,17.7 µM (inactive)
same,GI50,Malme-3M,19.5 µM (inactive)
same,GI50,NCI-H226,17.4 µM (inactive)
same,GI50,NCI-H23,17.4 µM (inactive)
same,GI50,NCI-H460,16.5 µM (inactive)
same,GI50,NCI-H522,19.8 µM (inactive)
same,GI50,OVCAR-3,15.5 µM (inactive)
same,GI50,OVCAR-4,16.7 µM (inactive)
same,GI50,OVCAR-5,20.5 µM (inactive)
same,GI50,OVCAR-8,17.3 µM (inactive)
same,GI50,PC-3,14.8 µM (inactive)
same,GI50,RPMI-8226,19.8 µM (inactive)
same,GI50,SF-268,18.2 µM (inactive)
same,GI50,SK-MEL-28,18.3 µM (inactive)
same,GI50,SK-MEL-2,17.9 µM (inactive)
same,GI50,SK-MEL-5,15.7 µM (inactive)
same,GI50,SN12C,16.9 µM (inactive)
same,GI50,SNB-19,18.2 µM (inactive)
same,GI50,SNB-75,13.1 µM (inactive)
same,GI50,SR,20.9 µM (inactive)
same,GI50,SW-620,18.3 µM (inactive)
same,GI50,T47D,3.99 µM (inactive)
same,GI50,TK-10,19.7 µM (inactive)
same,GI50,U-251,15.5 µM (inactive)
same,GI50,UACC-257,22.4 µM (inactive)
same,GI50,UACC-62,11.9 µM (inactive)
same,GI50,UO-31,14 µM (inactive)
